Results from ChEMBL document CHEMBL1201862, “PubChem BioAssay data set” (2004).
The source made the active and inactive calls.

Key:
[1] = biological target: T1, Small ubiquitin-related modifier 1 (Homo sapiens, UniProt P63165); test: inhibitors of SUMO1 peptide binding, dose response, biochemical, fluorescence polarization, uHTS hits (AID 624382); assay type: functional; conditions: read-out: IC50_Mean
Insulin-degrading enzyme = Insulin-degrading enzyme (Homo sapiens, UniProt P14735); test: Dose Response: Fluorescence polarization-based cell-based high throughput dose response assay for inhibitors of insulin-degrading enzyme (IDE). [Related pubchem assays: 434962 (Primary screen (IDE inhibitors in singlicate)), 449730 (Counterscreen (Cytotoxicity in triplicate)), 435028 (Confirmation (IDE inhibitors in triplicate)), 434984 (Summary …; assay type: functional
Genome polyprotein = Genome polyprotein (Hepatitis C virus, UniProt Q2Q167); test: HCV core protein dimerization inhibitors, dose response, biochemical, TR-FRET (AID 2159); parameters: species or system Hepacivirus hominis;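 further: blocks dimerization of HCV core protein measured by TR-FRET between tagged core106 pairs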
[2] = biological target: Induced myeloid leukemia cell differentiation protein Mcl-1 (Homo sapiens, UniProt Q07820); assay type: functional
[3] = biological target: T1, Small ubiquitin-related modifier 1; test: inhibitors of SUMO1 partner interactions, dose response, biochemical, FRET (AID 624383); assay type: functional; conditions: read-out: IC50_Mean
[4] = Counterscreen for IDE inhibitors: Luminescence-based cell-based high throughput dose response assay to identify compounds that are cytotoxic to HEK cells. [Related pubchem assays: 434962 (Primary screen (IDE inhibitors in singlicate)), 449730 (Counterscreen (Cytotoxicity in triplicate)), 435028 (Confirmation (IDE inhibitors in triplicate)) …; assay type: functional; conditions: HEK293
[5] = inhibitors of intracellular T. cruzi replication, confirmation, NIH3T3 host cells, beta-gal luminescence (AID 2044); assay type: functional, cell-based;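 further: intracellular parasites grown in NIH/3T3 mouse fibroblasts as host cells; luminescent beta-galactosidase reporter signal from transgenic T. cruzi replicating inside host cells; inhibitors lower the luminescence signal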
[6] = Shn3 3'UTR reporter inhibitors, dose response, cell-based, Clone20 osteoblasts, firefly luciferase, cherry-picked (AID 624132); assay type: functional;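 further: firefly luciferase luminescence from reporter carrying the Shn3 3'UTR in osteoblasts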
[7] = control 3'UTR Renilla luciferase suppression, dose response, counter-screen for Shn3 inhibitor project, cell-based, Clone20-Shn3RL, cherry-picked (AID 624133); assay type: functional
HEK293 [8] = test: cells; conditions: Homo sapiens
[9] = HepG2 cell cytotoxicity, dose response, cytotoxicity control for Shn3 inhibitor project, CellTiter-Glo, cherry-picked (AID 624134); assay type: functional, cell-based
[10] = biological target: T2, Microphthalmia-associated transcription factor (Homo sapiens, UniProt O75030); test: TRPM1 promoter luciferase signal decrease, dose response, MITF inhibitor project, cell-based, SK-MEL-5, cherry-picked, set 3 (AID 493073); assay type: functional
T2 sequence (O75030 whole entry): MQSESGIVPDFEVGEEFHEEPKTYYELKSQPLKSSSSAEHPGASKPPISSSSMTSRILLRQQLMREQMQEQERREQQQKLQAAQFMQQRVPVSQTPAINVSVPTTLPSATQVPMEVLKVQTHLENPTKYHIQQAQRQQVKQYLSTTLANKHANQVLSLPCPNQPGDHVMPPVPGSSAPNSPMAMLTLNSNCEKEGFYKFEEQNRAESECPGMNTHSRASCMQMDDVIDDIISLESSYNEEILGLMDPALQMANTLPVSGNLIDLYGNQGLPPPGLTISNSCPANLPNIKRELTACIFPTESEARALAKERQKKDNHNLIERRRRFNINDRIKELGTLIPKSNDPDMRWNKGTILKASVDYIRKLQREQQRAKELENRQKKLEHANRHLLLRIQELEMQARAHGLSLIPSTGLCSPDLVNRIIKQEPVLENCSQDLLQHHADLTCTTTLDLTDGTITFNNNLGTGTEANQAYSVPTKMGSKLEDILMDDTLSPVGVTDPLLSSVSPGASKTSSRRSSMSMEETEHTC

HEK293 [11] = test: cells; conditions: Homo sapiens; remark: listed apart in the source
HeLa = test: Cytotoxicity counterscreen assay for transcriptional activators of heat shock protein 70 (Hsp70). [Related pubchem assays: 1203, 1252 ]; assay type: functional; conditions: Homo sapiens;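 further: cells exposed to compound for 16 hours before readout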
[12] = cytotoxicity toward NIH3T3 fibroblasts, dose response, counter-screen, cell-based, ATP luminescence, mouse fibroblasts (AID 2010); assay type: functional;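 further: cells exposed to compound for about 90 hours before reading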
Estrogen receptor = biological target: T3, Estrogen receptor (Homo sapiens, UniProt P03372); test: ERα–SRC-3 coactivator interaction inhibitors, confirmation, orthogonal assay, biochemical, ELISA, streptavidin-HRP readout (AID 1079)
T3 sequence (P03372 whole entry): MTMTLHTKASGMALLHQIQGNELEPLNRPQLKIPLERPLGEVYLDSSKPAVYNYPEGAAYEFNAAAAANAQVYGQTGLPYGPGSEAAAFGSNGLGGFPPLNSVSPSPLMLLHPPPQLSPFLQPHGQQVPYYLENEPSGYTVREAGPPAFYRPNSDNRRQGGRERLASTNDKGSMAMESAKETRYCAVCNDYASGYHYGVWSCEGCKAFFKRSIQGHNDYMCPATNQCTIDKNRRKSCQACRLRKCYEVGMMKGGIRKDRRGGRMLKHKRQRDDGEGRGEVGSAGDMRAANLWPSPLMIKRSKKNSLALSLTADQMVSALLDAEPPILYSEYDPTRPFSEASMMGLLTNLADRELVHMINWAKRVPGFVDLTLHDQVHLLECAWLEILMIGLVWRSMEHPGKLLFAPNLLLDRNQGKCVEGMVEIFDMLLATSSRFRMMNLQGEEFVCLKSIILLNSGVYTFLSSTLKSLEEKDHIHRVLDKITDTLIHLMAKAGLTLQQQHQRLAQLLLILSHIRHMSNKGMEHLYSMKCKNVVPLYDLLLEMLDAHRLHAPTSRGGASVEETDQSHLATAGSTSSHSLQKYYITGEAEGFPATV

[13] = Luminescence Cell-Based Dose Confirmation to Identify Activators of 5'UTR Stem-Loop Driven Alpha-Synuclein mRNA Translation in H4 Neuroglioblastoma Cells. [Related pubchem assays: 1829 (Project Summary), 1814 (Primary HTS)]; assay type: functional
[14] = Luminescence Cell-Based Dose Response to Identify Activators of Luciferase Translation or Activity in H4-C Neuroglioblastoma Cells. [Related pubchem assays: 1829 (Project Summary), 1814 (Primary HTS)]; assay type: functional
H4 = test: Luminescence Cell-Based Dose Response HTS to Identify Activators of 5'UTR Stem-Loop Driven Prion Protein mRNA Translation in H4 Neuroglioblastoma Cells. [Related pubchem assays: 1829 (Project Summary), 1814 (Primary HTS)]; assay type: functional; conditions: Homo sapiens
[15] = test system: Streptococcus sp. 'group A'; test: growth inhibition of control SK(-) GAS strain, dose response, counter-screen for streptokinase expression inhibitor project, luminescence, kanamycin, BacTiterGlo, confirmation (AID 1900); assay type: functional, organism-based
[16] = Luminescence Cell-Based Dose Response HTS to Identify Activators of Luciferase Translation or Activity in H4 […] Cells. [Related pubchem assays: 1829 (Project Summary), 1814 (Primary HTS)]; assay type: functional
NS3 = NS3 (Hepatitis C virus, UniProt A3EZJ3); test: PubChem AID 2173; parameters: species or system Hepacivirus hominis
[17] = Luminescence Cell-Based Dose Response to Identify Activators of 5'UTR Stem-Loop Driven Prion Protein mRNA Translation in H4-C Neuroglioblastoma Cells. [Related pubchem assays: 1829 (Project Summary), 1814 (Primary HTS)]; assay type: functional
[18] = Luminescence Cell-Based Dose Confirmation HTS to Identify Activators of 5'UTR Stem-Loop Driven Alpha-Synuclein mRNA Translation in H4 Neuroglioblastoma Cells. [Related pubchem assays: 1829 (Project Summary), 1814 (Primary HTS)]; assay type: functional
Streptokinase A = biological target: T4, Streptokinase A (Streptococcus pyogenes serotype M1, UniProt P10520); test: S. pyogenes streptokinase expression inhibitors, potency, dose response, plasminogen activation absorbance, OD405 (AID 1914); assay type: functional, Streptococcus pyogenes M1 GAS;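 further: secreted streptokinase activity via plasminogen activation per viability signal from cell pellet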
T4 sequence (P10520 whole entry): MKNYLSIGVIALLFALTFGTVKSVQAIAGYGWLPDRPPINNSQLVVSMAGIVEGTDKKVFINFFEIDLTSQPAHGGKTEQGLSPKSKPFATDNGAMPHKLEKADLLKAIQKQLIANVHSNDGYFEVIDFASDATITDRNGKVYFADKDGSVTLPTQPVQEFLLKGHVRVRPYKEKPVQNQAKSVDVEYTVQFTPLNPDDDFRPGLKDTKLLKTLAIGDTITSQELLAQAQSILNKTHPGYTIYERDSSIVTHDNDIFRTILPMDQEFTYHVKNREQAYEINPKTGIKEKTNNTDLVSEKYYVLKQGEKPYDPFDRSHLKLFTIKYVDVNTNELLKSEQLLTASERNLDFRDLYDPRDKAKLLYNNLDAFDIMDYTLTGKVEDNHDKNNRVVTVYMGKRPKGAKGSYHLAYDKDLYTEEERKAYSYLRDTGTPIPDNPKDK

INS1 = test: beta cell apoptosis inhibitors, cytokine rescue, dose response, luminescence, retest (AID 449756); assay type: functional, cell-based; conditions: Rattus norvegicus, INS1;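 further: cell death triggered by IL-1 beta plus TNF-alpha plus IFN-gamma mixture; protective hits raise ATP signal compared with cytokine alone wells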
Streptococcus = test: Group A Streptococcus viability loss, dose response, counter-screen for streptokinase expression inhibitor project, luminescence, BacTiterGlo (AID 1915); assay type: functional, organism-based;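 further: potency for reduction of bacterial viability or growth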
[19] = Luminescence Cell-Based Dose Confirmation HTS to Identify Inhibitors of Platelet Dense Granule Release. [Related pubchem assays: 1663 (Primary HTS), 1678 (Summary of Project)]; assay type: functional
[20] = biological target: Luciferin 4-monooxygenase (Photinus pyralis, UniProt P08659); test: firefly luciferase enzyme inhibitors, dose response, biochemical, luminescence (AID 1891)
[21] = biological target: Neuropeptide Y receptor type 2 (Homo sapiens, UniProt P49146); test: Fluorescence-based cell-based high-throughput dose response assay for agonists of NPY-Y2. [Related pubchem assays: 1703 (Screening assay (CNGC inhibitors).), 1359 (Screening assay (NPY-Y2 potentiators or agonists).), 1304 (Screening assay (NPY-Y1 potentiators or agonists).), 1710 (Screening assay (NPY-Y2 agonists).), 1791 (Summary AID.)]; assay type: functional
cells = assay type: functional, cell-based; conditions: HEK-CNG
Galanin receptor type 3 = Galanin receptor type 3 (Homo sapiens, UniProt O60755); test: Fluorescence-based cell-based primary high throughput dose response assay to identify antagonists of the Galanin Receptor 3 (GalR3).; assay type: functional
HEK293 [22] = test: Fluorescence-based counterscreen for potentiators or agonists of NPY-Y2: cell-based high-throughput dose response assay to identify inhibitors of cyclic nucleotide gated ion channel (CNGC) activity. In this assay, the parental HEK293 cell line transfected with a cyclic-nucleotide gated ion channel (CNGC)-based cAMP sensor is used to measure inhibition of isoproterenol-induced CNGC activity by test compound.; assay type: functional; conditions: Homo sapiens
[23] = biological target: Neuropeptide Y receptor type 1 (Homo sapiens, UniProt P25929); test: Fluorescence-based counterscreen for agonists of NPY-Y2: cell-based high-throughput dose response assay for agonists of NPY-Y1.; assay type: functional
Chain of Neuropeptide Y receptor type 1 (P25929 whole entry): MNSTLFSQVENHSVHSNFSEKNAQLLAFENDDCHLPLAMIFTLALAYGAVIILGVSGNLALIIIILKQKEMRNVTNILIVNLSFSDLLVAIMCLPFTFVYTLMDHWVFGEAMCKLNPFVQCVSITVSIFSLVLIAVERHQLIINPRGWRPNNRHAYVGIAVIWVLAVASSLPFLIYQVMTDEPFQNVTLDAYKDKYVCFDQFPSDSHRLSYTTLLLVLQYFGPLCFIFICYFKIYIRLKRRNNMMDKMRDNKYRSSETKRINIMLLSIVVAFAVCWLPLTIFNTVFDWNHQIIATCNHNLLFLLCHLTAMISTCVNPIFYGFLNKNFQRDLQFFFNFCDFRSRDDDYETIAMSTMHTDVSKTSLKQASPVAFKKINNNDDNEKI

T1 sequence (P63165 whole entry): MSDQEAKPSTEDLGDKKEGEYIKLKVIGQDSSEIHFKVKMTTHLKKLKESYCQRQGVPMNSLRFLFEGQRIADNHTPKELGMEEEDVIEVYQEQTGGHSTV
Chain of Induced myeloid leukemia cell differentiation protein Mcl-1 (Q07820 whole entry): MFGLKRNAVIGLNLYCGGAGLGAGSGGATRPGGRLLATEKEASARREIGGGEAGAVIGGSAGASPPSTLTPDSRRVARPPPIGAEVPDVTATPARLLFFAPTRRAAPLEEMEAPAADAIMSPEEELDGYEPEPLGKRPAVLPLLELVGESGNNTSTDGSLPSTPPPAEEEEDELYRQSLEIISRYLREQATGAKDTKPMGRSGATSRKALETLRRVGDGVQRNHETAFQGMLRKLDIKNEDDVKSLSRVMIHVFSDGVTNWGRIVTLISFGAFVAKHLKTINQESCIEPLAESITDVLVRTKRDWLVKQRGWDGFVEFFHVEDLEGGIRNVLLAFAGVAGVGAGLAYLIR
Chain of Luciferin 4-monooxygenase (P08659 whole entry): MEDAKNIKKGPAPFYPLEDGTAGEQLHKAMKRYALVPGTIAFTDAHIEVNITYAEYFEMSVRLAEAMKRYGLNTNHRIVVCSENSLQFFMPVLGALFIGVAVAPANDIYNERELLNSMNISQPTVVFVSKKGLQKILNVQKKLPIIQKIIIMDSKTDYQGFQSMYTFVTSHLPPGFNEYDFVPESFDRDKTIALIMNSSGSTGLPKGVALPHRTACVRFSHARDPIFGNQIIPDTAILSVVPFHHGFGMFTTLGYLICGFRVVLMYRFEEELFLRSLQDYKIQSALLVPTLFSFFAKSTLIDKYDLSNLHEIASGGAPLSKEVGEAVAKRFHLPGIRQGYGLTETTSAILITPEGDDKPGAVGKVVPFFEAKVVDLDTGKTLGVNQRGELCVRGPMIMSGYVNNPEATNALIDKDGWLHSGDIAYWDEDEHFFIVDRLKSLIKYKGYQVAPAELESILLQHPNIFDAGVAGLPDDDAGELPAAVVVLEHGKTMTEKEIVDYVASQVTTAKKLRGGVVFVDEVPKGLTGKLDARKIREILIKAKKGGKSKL
Chain of Insulin-degrading enzyme (P14735 whole entry): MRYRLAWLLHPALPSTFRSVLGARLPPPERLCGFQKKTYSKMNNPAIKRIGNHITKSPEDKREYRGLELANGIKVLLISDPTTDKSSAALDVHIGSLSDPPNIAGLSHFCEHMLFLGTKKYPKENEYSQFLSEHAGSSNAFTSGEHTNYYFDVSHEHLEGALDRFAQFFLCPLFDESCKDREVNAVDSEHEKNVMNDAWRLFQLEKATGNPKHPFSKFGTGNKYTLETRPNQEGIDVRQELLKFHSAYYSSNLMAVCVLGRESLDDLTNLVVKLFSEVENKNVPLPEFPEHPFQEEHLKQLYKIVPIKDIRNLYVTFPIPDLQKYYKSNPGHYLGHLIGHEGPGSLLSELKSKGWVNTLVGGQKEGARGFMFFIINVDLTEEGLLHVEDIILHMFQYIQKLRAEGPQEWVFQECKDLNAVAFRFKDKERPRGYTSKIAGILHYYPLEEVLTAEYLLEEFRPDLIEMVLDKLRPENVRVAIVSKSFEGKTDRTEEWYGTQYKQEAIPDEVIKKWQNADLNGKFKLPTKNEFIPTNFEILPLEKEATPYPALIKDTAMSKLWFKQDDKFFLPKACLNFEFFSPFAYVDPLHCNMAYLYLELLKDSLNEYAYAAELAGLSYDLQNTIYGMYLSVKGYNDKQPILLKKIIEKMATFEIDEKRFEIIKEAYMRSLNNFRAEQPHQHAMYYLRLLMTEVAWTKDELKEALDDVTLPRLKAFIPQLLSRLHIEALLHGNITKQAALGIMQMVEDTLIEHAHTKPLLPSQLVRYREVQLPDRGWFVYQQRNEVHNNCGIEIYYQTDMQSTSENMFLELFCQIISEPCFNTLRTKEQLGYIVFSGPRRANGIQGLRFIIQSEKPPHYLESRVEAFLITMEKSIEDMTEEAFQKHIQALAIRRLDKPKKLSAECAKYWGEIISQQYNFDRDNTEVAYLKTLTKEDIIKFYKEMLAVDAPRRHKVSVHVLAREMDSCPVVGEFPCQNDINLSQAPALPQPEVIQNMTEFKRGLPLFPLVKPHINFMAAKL
Chain of Genome polyprotein (Q2Q167 whole entry): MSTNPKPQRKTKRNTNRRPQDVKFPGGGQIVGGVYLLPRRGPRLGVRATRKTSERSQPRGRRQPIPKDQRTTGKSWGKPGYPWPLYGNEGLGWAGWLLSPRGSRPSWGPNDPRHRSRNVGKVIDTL
Chain of NS3 (A3EZJ3 whole entry): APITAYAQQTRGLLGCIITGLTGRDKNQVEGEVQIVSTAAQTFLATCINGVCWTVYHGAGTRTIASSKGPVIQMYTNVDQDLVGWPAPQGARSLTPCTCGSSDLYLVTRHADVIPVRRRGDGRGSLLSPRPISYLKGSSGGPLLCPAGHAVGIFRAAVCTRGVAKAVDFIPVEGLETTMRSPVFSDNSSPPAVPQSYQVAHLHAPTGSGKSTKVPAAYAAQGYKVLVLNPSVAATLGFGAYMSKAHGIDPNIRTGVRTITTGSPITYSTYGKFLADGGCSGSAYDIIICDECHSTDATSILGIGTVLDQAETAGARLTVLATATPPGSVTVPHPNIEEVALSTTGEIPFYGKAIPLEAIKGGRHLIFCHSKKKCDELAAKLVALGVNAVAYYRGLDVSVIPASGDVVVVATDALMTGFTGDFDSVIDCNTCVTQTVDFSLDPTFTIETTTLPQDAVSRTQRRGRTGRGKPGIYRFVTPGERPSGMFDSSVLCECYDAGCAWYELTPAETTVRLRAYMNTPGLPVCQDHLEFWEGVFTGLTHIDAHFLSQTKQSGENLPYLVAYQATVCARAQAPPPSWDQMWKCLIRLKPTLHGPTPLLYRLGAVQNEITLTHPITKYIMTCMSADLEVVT
Chain of Neuropeptide Y receptor type 2 (P49146 whole entry): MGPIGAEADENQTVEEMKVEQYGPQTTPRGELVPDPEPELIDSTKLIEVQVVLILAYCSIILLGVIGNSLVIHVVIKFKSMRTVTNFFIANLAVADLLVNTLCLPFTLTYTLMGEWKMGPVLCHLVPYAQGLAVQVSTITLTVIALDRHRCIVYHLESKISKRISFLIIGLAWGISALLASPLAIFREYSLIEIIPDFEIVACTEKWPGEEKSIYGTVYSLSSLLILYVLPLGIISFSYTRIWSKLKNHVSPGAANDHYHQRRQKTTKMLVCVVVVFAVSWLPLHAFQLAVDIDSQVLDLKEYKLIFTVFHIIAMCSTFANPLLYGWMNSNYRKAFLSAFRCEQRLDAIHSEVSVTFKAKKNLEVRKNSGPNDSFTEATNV
Chain of Galanin receptor type 3 (O60755 whole entry): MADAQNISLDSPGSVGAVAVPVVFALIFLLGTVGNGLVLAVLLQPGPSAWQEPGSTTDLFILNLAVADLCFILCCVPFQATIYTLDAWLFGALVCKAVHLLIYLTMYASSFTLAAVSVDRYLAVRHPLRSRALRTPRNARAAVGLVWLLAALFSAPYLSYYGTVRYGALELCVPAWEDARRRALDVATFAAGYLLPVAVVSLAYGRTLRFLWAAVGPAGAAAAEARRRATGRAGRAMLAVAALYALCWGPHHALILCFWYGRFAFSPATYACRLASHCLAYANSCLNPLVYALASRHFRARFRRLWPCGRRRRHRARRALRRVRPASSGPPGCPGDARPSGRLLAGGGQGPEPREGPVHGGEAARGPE

COc1cccc(/C=N/Nc2[nH]cnc3c4cc(C)ccc4nc2-3)c1OC
IC50 [1]: > 66.6 µM (inactive)
IC50 (Insulin-degrading enzyme): 0.571 µM (active)
IC50 (Genome polyprotein): > 49.8 µM (not active)
IC50 [2]: 3.73 µM (active)
IC50 [3]: 2.38 µM (active)
IC50 [4]: 24.9 µM (not active)

CCCC(=O)N1CCN(c2ccc(NC(=O)c3ccc([N+](=O)[O-])o3)cc2Cl)CC1
EC50 [5]: 2.36 µM (active)
AC50 [6]: 0.7 µM (active)
AC50 [7]: 8.17 µM (active)
EC50 (HEK293 [8]): > 59.6 µM (inactive)
AC50 [9]: 36.6 µM (active)
AC50 [10]: 7.65 µM (active)
EC50 (HEK293 [11]): > 59.6 µM (inactive)
CC50 (HeLa): 4.19 µM (active)
EC50 [12]: 2.96 µM (active)

O=C(CCCCCn1c(=S)[nH]c2ccccc2c1=O)N1CCN(c2ccncc2)CC1
IC50 (Estrogen receptor): 0.03 µM (not active)

NC(=S)N/N=C/c1ccc(C23CC4CC(CC(C4)C2)C3)cc1
EC50 [13]: 0.324 µM (active)
EC50 [14]: 0.415 µM (active)
EC50 [5]: 0.387 µM (active)
EC50 (H4): 96.8 µM (active)
EC50 [15]: 2.4 µM (active)
EC50 [16]: < 0.1 µM (active)
IC50 (NS3): 5.41 µM (active)
EC50 [17]: 1.31 µM (active)
EC50 [18]: < 0.1 µM (active)
EC50 (Streptokinase A): 13.4 µM (active)
AC50 (INS1): 5.3 µM (active)
EC50 [12]: 7.3 µM (active)
EC50 (Streptococcus): > 50 µM (not active)

Nc1cc(-c2ccc(Br)cc2)nn1Cc1ccccc1
EC50 [19]: > 112 µM (not active)
EC50 [20]: > 112 µM (not active)
EC50 [21]: 13.1 µM (not active)
EC50 (H4): 13.1 µM (active)
EC50 (cells): > 29.9 µM (inactive)
EC50 [16]: 18 µM (active)
IC50 (Galanin receptor type 3): 3.55 µM (active)
EC50 [18]: 7.99 µM (active)
EC50 (HEK293 [22]): 9.3 µM (active)
EC50 [23]: 11.6 µM (not active)
